The source of these data is ChEMBL document CHEMBL3861967, “Cyclopeptide Alkaloids from Hymenocardia acida” (J Nat Prod, 2016).

One data set has as its system Plasmodium falciparum. Description: Antiplasmodial activity against chloroquine-resistant Plasmodium falciparum K1 infected in human erythrocytes assessed as reduction in parasitemia after 72 hrs by lactate dehydrogenase assay. Type of data set: functional, cell-based. The conditions noted are these: K1, 72 h.
Data set [1] in a line: Cytotoxicity against human MRC5 cells assessed as decrease in cell viability after 7 days by MTT assay. Format: toxicity, cell-based. For orientation: Tetrazolium dyes change colour on reduction, which living cells bring about.

Structures are written as SMILES. Bounds are passed on as bounds.

For orientation: IC50 means the concentration that gives 50% inhibition. For `CCC(C)[C@@H](C(=O)N[C@H](C(=O)N[C@@H]1C(=O)N[C@@H](Cc2c[nH]c3ccccc23)C(=O)NCC(O)c2ccc(cc2)OC1(C)C)C(C)C)N(C)C` (stereo partly drawn), the IC50 in the data set on Plasmodium falciparum is 17.5 µM. For the same compound, the IC50 at 7 days in data set [1] is more than 64 µM.

For the compound `CCC(C)[C@@H](C(=O)N[C@H](C(=O)N[C@@H]1C(=O)N[C@@H](Cc2c[nH]c3ccccc23)C(=O)NCC(=O)c2ccc(cc2)OC1(C)C)C(C)C)N(C)C` (stereo partly drawn), in the data set on Plasmodium falciparum, the IC50 amounted to 16.4 µM. For the same compound, in data set [1], the IC50 at 7 days is 51.1 µM.

For the compound `CCC(C)[C@H](NC(=O)[C@H](C(C)CC)N(C)C)C(=O)N[C@@H]1C(=O)N[C@@H](Cc2c[nH]cn2)C(=O)NCC(=O)c2ccc(cc2)O[C@H]1C(C)C` (stereo partly drawn), the IC50 with Plasmodium falciparum is 27.9 µM. For the same compound, the IC50 at 7 days in data set [1] is more than 64 µM.

With `CCC(C)[C@@H](C(=O)N[C@H](C(=O)N[C@@H]1C(=O)N[C@@H](Cc2c[nH]c3ccccc23)C(=O)NCC(=O)c2ccc(cc2)OC1(C)C)C(C)C)[N+](C)(C)[O-]` (stereo partly drawn), the IC50 in the data set with Plasmodium falciparum amounted to 12.2 µM. Also, the IC50 at 7 days in data set [1] was more than 64 µM.
